One block for each compound: values may come before it.
Experiments:
[1] = tested on: Meibomian gland secretion; experiment: Meibomian gland secretion in vivo (Meibometer), other agonists
Protocol: Meibomian gland secretion was measured with a Meibometer (Courage-Khazaka Electronic GmbH, 50829 Cologne) and was increased in vivo as described in Examples 6 and 7, hereinafter.

[2] = tested on: intraocular pressure; experiment: night-time intraocular pressure in Dutch-Belted rabbits; assay type: in vivo, rabbit; details: for increase of IOP: night-time IOP, ocular instillation
Protocol: Intraocular pressure (IOP) in rabbits is considerably higher during the night than during the day. The present experiments were conducted in Dutch-Belted rabbits in which IOP was higher during daytime as a consequence of switching the night/day cycle by exposing the animals to 12 hours of light during the night and 12 hours of darkness during daytime. […]

[3] = molecular target: T1, human β3 receptors (Homo sapiens, UniProt P13945); experiment: human β3 adrenergic receptor binding, [125I]CYP
T1 construct: expressed in transfected cells; host or cells: SK-N-MC cells
Description: The specific ligand binding to the receptors is defined as the difference between the total binding and the nonspecific binding determined in the presence of an excess of unlabelled ligand.

[4] = solubility in water; assay type: physicochemical
[5] = tested on: lacrimal gland secretion; experiment: lacrimal secretion (Schirmer) after intravenous administration in conscious rabbits; assay type: in vivo, rabbit
Protocol: In short, Schirmer strips are strips of filter papers, which are in part inserted into the conjunctival sac and in part hanging out from the conjunctival sac. The Schirmer strips absorb the watery tear fluid as can be observed as wetting of the strips. The length of the wetted area is measured and is an indicator of the amount of available tear fluid in the conjunctival sac. […] The average pre-dose value (from three Schirmer readings in each animal) was compared with the average of four readings during the infusions of R-salbutamol.

[6] = tested on: intraocular pressure; experiment: normal intraocular pressure in Dutch-Belted rabbits; assay type: in vivo, rabbit; details: 4.1% in saline, twice daily for 5 days
Protocol: Intraocular pressure was measured twice daily using the methodology stated above.

[7] = tested on: Meibomian gland secretion; experiment: Meibomian gland secretion (Meibometer) after intravenous infusion in conscious beagle dogs; assay type: in vivo, dog; details: for Meibomian gland secretion: pre-infusion 248±9 MU
Protocol: . A Meibometer (MB550, Courage-Khazaka GmbH, Koln, Germany) was used to measure the delivery rate of lipids from the Meibomian glands. The measurements were performed in conscious beagle dogs. To reduce variability all studies were performed by a single individual, who had obtained extensive training with the instrumentation and was used to the handling of conscious laboratory dogs. The methodology has been described by Benz, P., et al. 2008, which publication is hereby included by reference, although new and improved computer software was used in the present studies.

[8] = tested on: Meibomian gland secretion; experiment: Meibomian lipid secretion (Meibometer) after ocular instillation in conscious beagle dogs; assay type: in vivo, dog; details: Day 3, 4.0 percent in saline, single eye drops three times daily; vehicle 174 MU
Protocol: A Meibometer was used to measure the delivery rate of lipids from the Meibomian glands. The measurements were performed in conscious beagle dogs and the test methodology is described above (Example 6). In these experiments, Meibomian secretion was measured in saline vehicle-treated dogs and in groups of dogs that were treated with a test article, daily at about 9 AM, 11 AM and 1 PM with single eye drops. […] Both eyes were treated and a total of six dogs were used for each treatment group.

[9] = tested on: intraocular pressure; experiment: intraocular pressure in rabbits with glucose-elevated IOP; assay type: in vivo, rabbit; details: 10 μL instilled, 12-15 minutes after dosing
Protocol: Intraocular pressure (IOP) was increased in conscious rabbits by intravenous injections of glucose. The test compound was administered by instillation into the conjunctival sac immediately after the glucose injection and all measurements were made approximately 12-15 minutes after dosing. […] Thus, 10 μL of solutions containing 3.5 or 7.0 or 14.0 mg/ml in Tears Naturale® were instilled into the conjunctival sac. Tears Naturale® was used as control solution. TOP was measured using a manometrically calibrated BIO-RAD Digilab pneumatonometer. Tetracaine (10 μl, 0.5%) was applied to the cornea before the IOP measurements. N=7 Dutch Belted rabbits/group (2-4 kg; M and F).

[10] = tested on: eyes of New Zealand White rabbits; experiment: ocular irritation, Draize scoring in New Zealand White rabbits
Protocol: As a vehicle control 0.1 ml of 0.9% sodium chloride for injection (B. Braun; Lot No. J9A692) was instilled in the conjunctival sac of the left eye of all the rabbits. […] Draize scoring was assessed 30 minutes, 4 hours and 24 hours after the instillations of the placebo control (saline) and the test article solutions.
The grades of ocular reaction (conjunctivae, cornea, and iris) were determined at each examination.

[11] = tested on: patients; details: according to the manufacturer; cited from earlier work

T1 sequence (P13945 whole entry): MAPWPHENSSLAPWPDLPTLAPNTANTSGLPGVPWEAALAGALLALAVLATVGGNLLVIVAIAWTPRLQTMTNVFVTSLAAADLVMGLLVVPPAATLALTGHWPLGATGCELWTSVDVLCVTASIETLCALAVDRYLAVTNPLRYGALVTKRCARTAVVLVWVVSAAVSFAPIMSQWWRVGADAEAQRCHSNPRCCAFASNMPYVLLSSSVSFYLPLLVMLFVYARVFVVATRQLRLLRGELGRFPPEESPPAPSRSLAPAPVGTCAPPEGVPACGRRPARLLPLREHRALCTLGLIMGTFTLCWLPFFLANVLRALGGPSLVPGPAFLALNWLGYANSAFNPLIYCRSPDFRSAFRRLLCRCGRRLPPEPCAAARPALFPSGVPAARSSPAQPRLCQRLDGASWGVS

SMILES: CC(CCc1ccc(O)cc1)NCC(O)c1ccc(O)cc1 (racemic) [RR/SR ractopamine, ractopamine]
Meibomian gland secretion in vivo [1]: ability to increase Meibomian gland secretion in vivo

Δ mmHg, nighttime intraocular pressure ([2]; RS-Hi 2.0%, 1 PM): −7 mmHg
Δ mmHg, nighttime intraocular pressure ([2]; RS-Hi 2.0%, 3 PM): −4 mmHg
Δ mmHg, nighttime intraocular pressure ([2]; RS-Hi 2.0%, 5 PM): −0 mmHg
Δ mmHg, nighttime intraocular pressure ([2]; RS-Hi 2.0%, 9:00 (instillation)): 0 mmHg
Δ mmHg, nighttime intraocular pressure ([2]; RS-Hi 2.0%, 9:30): −9 mmHg
Δ mmHg, nighttime intraocular pressure ([2]; RS-Hi 2.0%, 10 AM): −9 mmHg
Δ mmHg, nighttime intraocular pressure ([2]; RS-Hi 2.0%, 11 AM): −9 mmHg
Δ mmHg, nighttime intraocular pressure ([2]; RS-Lo 0.67%, 1 PM): −5 mmHg
Δ mmHg, nighttime intraocular pressure ([2]; RS-Lo 0.67%, 3 PM): −2 mmHg
Δ mmHg, nighttime intraocular pressure ([2]; RS-Lo 0.67%, 5 PM): −0.5 mmHg
Δ mmHg, nighttime intraocular pressure ([2]; RS-Lo 0.67%, 9:00 (instillation)): 0 mmHg
Δ mmHg, nighttime intraocular pressure ([2]; RS-Lo 0.67%, 9:30): −6 mmHg
Δ mmHg, nighttime intraocular pressure ([2]; RS-Lo 0.67%, 10 AM): −6 mmHg
Δ mmHg, nighttime intraocular pressure ([2]; RS-Lo 0.67%, 11 AM): −6 mmHg
affinity for beta-3 receptors [3]: practically no affinity
solubility in water [4]: readily soluble in water
SMILES: CC(C)(C)NCC(O)c1ccc(O)c(CO)c1 (racemic) [salbutamol, a′[(tert-butylamino)methyl]-4-hydroxy-m-xylene-a,a′-diol]
increase of IOP [2]: Neither racemic nor isomeric salbutamol increased IOP

Δ mmHg, nighttime intraocular pressure ([2]; R-Hi 1.0%): −11 mmHg
Δ mmHg, nighttime intraocular pressure ([2]; R-Hi 1.0%, 1 PM): −10 mmHg
Δ mmHg, nighttime intraocular pressure ([2]; R-Hi 1.0%, 3 PM): −3 mmHg
Δ mmHg, nighttime intraocular pressure ([2]; R-Hi 1.0%, 5 PM): −2 mmHg
Δ mmHg, nighttime intraocular pressure ([2]; R-Hi 1.0%, 9:00 (instillation)): 0 mmHg
Δ mmHg, nighttime intraocular pressure ([2]; R-Hi 1.0%, 9:30): −7 mmHg
Δ mmHg, nighttime intraocular pressure ([2]; R-Hi 1.0%, 10 AM): −8 mmHg
Δ mmHg, nighttime intraocular pressure ([2]; R-Lo 0.33%, 1 PM): −4 mmHg
Δ mmHg, nighttime intraocular pressure ([2]; R-Lo 0.33%, 3 PM): −3 mmHg
Δ mmHg, nighttime intraocular pressure ([2]; R-Lo 0.33%, 5 PM): −2.5 mmHg
Δ mmHg, nighttime intraocular pressure ([2]; R-Lo 0.33%, 9:00 (instillation)): 0 mmHg
Δ mmHg, nighttime intraocular pressure ([2]; R-Lo 0.33%, 9:30): −7 mmHg
Δ mmHg, nighttime intraocular pressure ([2]; R-Lo 0.33%, 10 AM): −9 mmHg
Δ mmHg, nighttime intraocular pressure ([2]; R-Lo 0.33%, 11 AM): −9 mmHg
affinity for beta-3 receptors [3]: practically no affinity
increase in IOP [6]: No increase in IOP was observed
concentration dissolved in water [4]: in excess of five percent by weight
solubility in water [4]: readily soluble in water
intraocular pressure lowered (vs control animals), mean±SEM ([9]; 3.5 mg/ml): 5.5±1.3 mmHg
intraocular pressure lowered (vs control animals), mean±SEM ([9]; 7.0 mg/ml): 6.7±1.5 mmHg
intraocular pressure lowered (vs control animals), mean±SEM ([9]; 14.0 mg/ml): 5.8±1.3 mmHg
SMILES: CC(C)(C)NC[C@H](O)c1ccc(O)c(CO)c1 [R-salbutamol, R(−)-isomer of a′[(tert-butylamino)methyl]-4-hydroxy-m-xylene-a,a′-diol]
increase of IOP [2]: Neither racemic nor isomeric salbutamol increased IOP
wetting of the Schirmer strips ([5]; during iv infusion 30 μg/kg/min for 20 min, predose 20.3±1.6, six eyes): 33.8±2.3 millimeter
increased wetting of the Schirmer strips ([5]; iv 30 μg/kg/min, versus predose): approximately 66%
Meibomian gland secretion ([7]; during twenty-minute iv infusion 30 μg/kg/min): 235±23 MU
difference between pre-infusion and post-infusion secretion ([7]; iv 30 μg/kg/min for 20 min): approximately 27%
Meibomian gland secretion ([7]; ten minutes post-infusion): 316±26 MU
Meibomian secretion, mean [8]: 304 MU
Mean Post-Instillation Irritation Score ([10]; 0.1% in saline, 4 Hours): 0
Mean Post-Instillation Irritation Score ([10]; 0.1% in saline, 24 Hours): 0
Mean Post-Instillation Irritation Score ([10]; 0.1% in saline, 30 Minutes): 0
Mean Post-Instillation Irritation Score ([10]; 0.5% in saline, 4 Hours): 0
Mean Post-Instillation Irritation Score ([10]; 0.5% in saline, 24 Hours): 0
Mean Post-Instillation Irritation Score ([10]; 0.5% in saline, 30 Minutes): 0
Mean Post-Instillation Irritation Score ([10]; 5.0% in saline, 4 Hours): 0
Mean Post-Instillation Irritation Score ([10]; 5.0% in saline, 24 Hours): 0
Mean Post-Instillation Irritation Score ([10]; 5.0% in saline, 30 Minutes): 0
ocular irritancy ([10]; single-dose, in saline, concentrations up to 5%): not irritants

SMILES: CC(C)(C)NC[C@@H](O)c1ccc(O)c(CO)c1 [S-salbutamol]
Meibomian gland secretion in vivo [1]: may also increase Meibomian gland secretion

SMILES: CNCC(O)c1ccc(OC(=O)C(C)(C)C)c(OC(=O)C(C)(C)C)c1 (centres unmarked) [dipivefrin]
patients with epinephrine intolerance [11]: 3%

SMILES: CNC[C@H](O)c1ccc(O)c(O)c1 [epinephrine]
patients with epinephrine intolerance [11]: 55%

intraocular pressure lowered (vs control animals), mean±SEM ([9]; 3.5 mg/ml): 4.7±1.3 mmHg
intraocular pressure lowered (vs control animals), mean±SEM ([9]; 7.0 mg/ml): 4.6±1.0 mmHg
intraocular pressure lowered (vs control animals), mean±SEM ([9]; 14.0 mg/ml): 4.7±1.3 mmHg
SMILES: CC(C)(C)NC[C@H](O)COc1nsnc1N1CCOCC1 [timolol]

Reference: patent US20110294897A1, “Treating Xerophthalmia With Compounds Increasing Meibomian Gland Secretion” (Bridge Pharma, Inc., priority 2009, published 2011)
